Measurements published in US9718790B2, “Triazine derivative and pharmaceutical composition having an analgesic activity comprising the same” (SHIONOGI & CO., LTD., priority 2010, dated 2017).
Values belong to the compound of their own block, whether it stands above or below them.

Molecular target: human P2X3 receptor (Homo sapiens (Human), UniProt P56373)
Experiment: Evaluation of human P2X3 receptor inhibitory activity (Fluo-3 calcium fluorescence, FDSS 3000, ATP stimulation);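 further: stimulus was 50 nM ATP with fluorescence followed for 3 min, and the response per well was peak post-ATP fluorescence divided by the reading at measurement start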
Format: cell-based
[1] = C6BU-1 cells stably expressing human P2X3 receptor, Fluo-3 fluorescence, FDSS 3000
[2] = C6BU-1 cells stably expressing human P2X3 receptor
[3] = human P2X3 receptor, Test Example 1

human P2X3 receptor, sequence (P56373 whole entry): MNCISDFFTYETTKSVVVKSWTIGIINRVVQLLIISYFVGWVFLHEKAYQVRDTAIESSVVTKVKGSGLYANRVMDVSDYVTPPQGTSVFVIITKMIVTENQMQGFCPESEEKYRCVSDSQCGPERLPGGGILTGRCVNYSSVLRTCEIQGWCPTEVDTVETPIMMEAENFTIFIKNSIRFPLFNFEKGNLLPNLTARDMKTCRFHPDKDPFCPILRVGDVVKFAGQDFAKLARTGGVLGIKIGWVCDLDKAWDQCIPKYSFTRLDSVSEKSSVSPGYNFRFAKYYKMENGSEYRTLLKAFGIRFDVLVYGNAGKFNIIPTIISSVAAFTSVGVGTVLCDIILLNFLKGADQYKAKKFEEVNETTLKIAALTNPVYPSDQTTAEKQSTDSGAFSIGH

SMILES: Cc1cc(Oc2ccc(/N=c3\[nH]c(=O)n(C[C@H](C)C(=O)O)c(=O)n3Cc3ccc(Cl)cc3)cc2)no1 [Compound I-1662]
- IC50 [1]: 11 nM

SMILES: CC(C)Oc1ccc(/N=c2\[nH]c(=O)n(CC(=O)NN)c(=O)n2Cc2ccc(Cl)cc2)cc1F [Compound I-0635]
- IC50 [2]: 19 nM

SMILES: COC(=O)C(C)(C)n1c(=O)[nH]/c(=N\c2ccc(O)c(Cl)c2)n(Cc2ccc(Cl)cc2)c1=O [Compound I-0676]
- IC50 [2]: 30 nM

SMILES: CO/N=C/c1ccc(/N=c2\[nH]c(=O)n(C[C@H](C)C(=O)OC)c(=O)n2Cc2ccc(Cl)cc2)cc1F [Compound I-0881, (S)-1-(4-chlorobenzyl)-6-(3-fluoro-4-methoxyiminomethylphenylimino)-3-(2-methoxycarbonylpropyl)-1,3,5-triazinane-2,4-dion]
- IC50 [3]: 127 nM

SMILES: CC(C)Oc1ccc(/N=c2\[nH]c(=O)n(CCNC(=N)N)c(=O)n2Cc2ccc(Cl)cc2)cc1F [Compound I-0659, 1-(4-chlorobenzyl)-6-(3-fluoro-4-isopropoxyphenylimino)-3-(4-imino-4-amino-3-azabutyl)-1,3,5-triazinane-2,4-dion]
- IC50 [2]: 134 nM

SMILES: CCn1c(=O)[nH]/c(=N\c2ccc(Oc3ccnc(O)c3)cc2)n(Cc2ccc(Cl)cc2)c1=O [Compound I-1621]
- IC50 [1]: 4 nM

SMILES: COC(=O)[C@H](C)[C@H](C)n1c(=O)[nH]/c(=N\c2ccc(OCC(C)C)cc2)n(Cc2ccc(C)cc2)c1=O [Compound I-1331]
- IC50 [2]: 56 nM

SMILES: COC(=O)[C@@H](C)Cn1c(=O)[nH]/c(=N\c2ccc(OC(C)C)c(OC(C)C)c2)n(Cc2ccc(C)cc2)c1=O [Compound I-1130]
- IC50 [1]: 133 nM

SMILES: CNC(=O)[C@@H](C)n1c(=O)[nH]/c(=N\c2ccc(Oc3ccon3)cc2)n(Cc2ccc(Cl)cc2)c1=O [Compound I-2534]
- IC50 [3]: 105 nM

SMILES: Cc1cc(/N=c2\[nH]c(=O)n(C[C@H](O)CO)c(=O)n2Cc2ccc(Cl)cc2)ccc1OC(C)C [Compound I-0722]
- IC50 [2]: 14 nM

SMILES: COC(=O)[C@@H](C)Cn1c(=O)[nH]/c(=N\c2ccc3c(c2)CCO3)n(Cc2ccc(Cl)cc2)c1=O [Compound I-0770]
- IC50 [2]: 405 nM

SMILES: CCCOc1ccc(/N=c2\[nH]c(=O)n([C@@H](C)[C@@H](C)C(=O)O)c(=O)n2Cc2ccc(Cl)cc2)cc1 [Compound I-0920]
- IC50 [1]: 37 nM

SMILES: CCC[C@H](C)Oc1ccc(/N=c2\[nH]c(=O)n(CCC(=O)O)c(=O)n2Cc2ccc(C)cc2)cc1 [Compound I-1067]
- IC50 [1]: 93 nM

SMILES: CCOC(=O)COc1ccc(/N=c2\[nH]c(=O)n(CC)c(=O)n2Cc2ccc(Cl)cc2)cc1 [Compound I-1989]
- IC50 [2]: 619 nM

SMILES: CC(C)Oc1ccc(/N=c2\[nH]c(OCC(=O)NC(CO)CO)nc(=O)n2Cc2ccc(Cl)cc2)cc1F [Compound I-0584]
- IC50 [2]: 248 nM

SMILES: C[C@H](Cn1c(=O)[nH]/c(=N\c2ccc(OCC3CC3)cc2)n(Cc2ccc(Cl)cc2)c1=O)C(=O)O [Compound I-1037]
- IC50 [1]: 93 nM

SMILES: COC(=O)[C@@H](C)Cn1c(=O)[nH]/c(=N\c2ccc(Oc3ccnc(C)c3)cc2)n(Cc2ccc(C)cc2)c1=O [Compound I-1274]
- IC50 [2]: 6 nM

SMILES: COC(=O)c1ccc(Cn2c(=O)[nH]/c(=N\c3ccc(OC(C)C)c(C)c3)n(Cc3ccc(Cl)cc3)c2=O)o1 [Compound I-0700]
- IC50 [2]: 6 nM

SMILES: CCOC(=O)CCn1c(=O)[nH]/c(=N\c2ccc(OC3CC3)c(Cl)c2)n(Cc2ccc(C)cc2)c1=O [Compound I-1606]
- IC50 [1]: 15 nM

SMILES: CCOC(=O)CCn1c(=O)[nH]/c(=N\c2ccc(OC(C)C)c(C3CC3)c2)n(Cc2ccc(C)cc2)c1=O [Compound I-1300]
- IC50 [2]: 18 nM

SMILES: CNC(=O)[C@H](C)n1c(=O)[nH]/c(=N\c2ccc(Oc3ccon3)cc2)n(Cc2ccc(Cl)cc2)c1=O [Compound I-2535]
- IC50 [3]: 44 nM

SMILES: CCOC(=O)CCn1c(=O)[nH]/c(=N\c2ccc(CC(C)C)c(OC)c2)n(Cc2ccc(C)cc2)c1=O [Compound I-1361]
- IC50 [2]: 15 nM

SMILES: CCn1c(=O)[nH]/c(=N\c2ccc(Oc3cnc(C(N)=O)cn3)cc2)n(Cc2ccc(Cl)cc2)c1=O [Compound I-2388]
- IC50 [3]: 3 nM

SMILES: COC(=O)[C@@H](C)Cn1c(=O)[nH]/c(=N\c2ccc(/C=C/C3CC3)cc2)n(Cc2ccc(C)cc2)c1=O [Compound I-1193]
- IC50 [2]: 40 nM

SMILES: CCc1oc2ccc(/N=c3\[nH]c(=O)n(CCNC(C)=O)c(=O)n3Cc3ccc(Cl)cc3)cc2c1C [Compound I-1566]
- IC50 [1]: 8 nM

SMILES: CCOc1ccc(/N=c2\[nH]c(=O)n(C[C@H](C)C(=O)O)c(=O)n2Cc2ccc(Cl)cc2)cc1F [Compound I-0609]
- IC50 [2]: 31 nM

SMILES: CCOc1ccc(/N=c2\[nH]c(=O)n([C@@H](C)[C@@H](C)C(=O)OC)c(=O)n2Cc2ccc(Cl)cc2)cc1Cl [Compound I-0916]
- IC50 [1]: 19 nM

SMILES: CCn1c(=S)[nH]/c(=N\c2ccc(Oc3cncc(C(=O)O)c3)cc2)n(Cc2ccc(Cl)cc2)c1=O [Compound I-2263]
- IC50 [3]: 4 nM

SMILES: CCOC(=O)CC(C)(C)n1c(=O)[nH]/c(=N\c2ccc(OC(C)C)c(F)c2)n(Cc2ccc(Cl)cc2)c1=O [Compound I-0822]
- IC50 [2]: 26 nM

SMILES: CCC(=O)Nc1ccc(Oc2ccc(/N=c3\[nH]c(=O)n(CC)c(=O)n3Cc3ccc(Cl)cc3)cc2)cn1 [Compound I-2242]
- IC50 [3]: < 4 nM

SMILES: CCCOc1ccc(/N=c2\[nH]c(=O)n(C[C@@H](C)C(=O)O)c(=O)n2Cc2ccc(Cl)cc2)cc1 [Compound I-1035]
- IC50 [1]: 65 nM

SMILES: CCOC(=O)C1(Cn2c(=O)[nH]/c(=N\c3ccc4nc(C)sc4c3)n(Cc3ccc(Cl)cc3)c2=O)CC1 [Compound I-1537]
- IC50 [3]: 3 nM

SMILES: CNC(=O)Cn1c(=O)[nH]/c(=N\c2ccc(Oc3ccnc(C)c3)cc2)n(Cc2ccc(Cl)cc2)c1=O [Compound I-1927]
- IC50 [2]: 7 nM

SMILES: Cc1cc(/N=c2\[nH]c(=O)n(CC[C@H](NC(=O)OC(C)(C)C)C(=O)O)c(=O)n2Cc2ccc(Cl)cc2)ccc1OC(C)C [Compound I-0732, (S)-1-(4-chlorobenzyl)-3-(3-t-butoxycarbonylamino-3-hydroxycarbonylpropyl)-6-(3-mehyl-4-isopropoxyphenylimino)-1,3,5-triazinane-2,4-dion]
- IC50 [2]: 41 nM

SMILES: COC(=O)c1cncc(Oc2ccc(/N=c3\[nH]c(=O)n(C)c(=O)n3Cc3ccc(Cl)cc3)cc2)n1 [Compound I-2469]
- IC50 [3]: 19 nM

SMILES: Cc1[nH]c2ccc(/N=c3\[nH]c(=O)n(CCC(N)=O)c(=O)n3Cc3ccc(Cl)cc3)cc2c1C [Compound I-1966]
- IC50 [2]: 11 nM

SMILES: CNC(=O)Cn1c(=O)[nH]/c(=N\c2ccc(Oc3cccc(F)n3)cc2)n(Cc2ccc(Cl)cc2)c1=O [Compound I-2585]
- IC50 [3]: 8 nM

SMILES: COC(=O)[C@@H]1CC(n2c(=O)[nH]/c(=N\c3ccc(OC(C)C)c(C)c3)n(Cc3ccc(Cl)cc3)c2=O)CN1C(=O)OC(C)(C)C (stereo partly drawn) [Compound I-0699]
- IC50 [2]: 37 nM

SMILES: Cc1ccc(Cn2c(=O)n(CC3(C(=O)O)CC3)c(=O)[nH]/c2=N\c2ccc(CC(C)C)c(Cl)c2)cc1 [Compound I-1451]
- IC50 [2]: 5 nM

SMILES: CC(C)Oc1ccc(/N=c2\[nH]c(=O)n(CCS(N)(=O)=O)c(=O)n2Cc2ccc(Cl)cc2)cc1F [Compound I-0693, 1-(4-chlorobenzyl)-6-(3-fluoro-4-isopropoxyphenylimino)-3-(2-sulfamoylethyl)-1,3,5-triazinane-2,4-dion]
- IC50 [2]: 13 nM

SMILES: Cc1ccc(Cn2c(=O)n(CCC(=O)O)c(=O)[nH]/c2=N\c2ccc3c(ccc(=O)n3C)c2)cc1 [Compound I-2128]
- IC50 [2]: 287 nM

SMILES: CCOC(=O)CCn1c(=O)[nH]/c(=N\c2ccc(OCC(C)(C)C)cc2)n(Cc2ccc(C)cc2)c1=O [Compound I-1056]
- IC50 [1]: 177 nM

SMILES: CCCc1ccc(/N=c2\[nH]c(=O)n(C[C@H](C)C(=O)O)c(=O)n2Cc2ccc(Cl)cc2)cc1OC [Compound I-1354]
- IC50 [2]: 139 nM

SMILES: CC1(C)OC[C@H](Cn2c(=O)[nH]/c(=N\c3ccc(OCC4CC4)cc3)n(Cc3ccc(Cl)cc3)c2=O)O1 [Compound I-1854]
- IC50 [1]: 4 nM

SMILES: CCCOc1ccc(/N=c2\[nH]c(=O)n(CC3(C(=O)O)CC3)c(=O)n2Cc2ccc(Cl)cc2)cc1Cl [Compound I-0986]
- IC50 [1]: 31 nM

SMILES: CCn1c(=O)[nH]/c(=N\c2ccc(Oc3cncc(C(=O)OC)c3)cc2)n(Cc2ccc(Cl)cn2)c1=O [Compound I-2154]
- IC50 [2]: 133 nM

SMILES: COC(=O)CCn1c(=O)[nH]/c(=N\c2ccc(Oc3ccc(C#N)cn3)cc2)n(Cc2ccc(C)cc2)c1=O [Compound I-2636]
- IC50 [3]: 2 nM

SMILES: COC(=O)[C@@H](C)Cn1c(=O)[nH]/c(=N\c2ccc(C3CC3)c(C3CC3)c2)n(Cc2ccc(C)cc2)c1=O [Compound I-1488]
- IC50 [3]: 652 nM

SMILES: CCc1nc2ccc(/N=c3\[nH]c(=O)n(CCCC(=O)O)c(=O)n3Cc3ccc(Cl)cc3)cc2s1 [Compound I-1705]
- IC50 [1]: 14 nM

SMILES: Cc1ccc(Cn2c(=O)n(CCC(=O)O)c(=O)[nH]/c2=N\c2ccc3nc(C(C)C)sc3c2)cc1 [Compound I-1563]
- IC50 [1]: 31 nM

SMILES: COC(=O)[C@@H](C)Cn1c(=O)[nH]/c(=N\c2ccc(OC(C)C)c(C)c2)n(Cc2ccc(F)cc2)c1=O [Compound I-0625]
- IC50 [2]: 66 nM

SMILES: CC[C@@H](Cn1c(=O)[nH]/c(=N\c2ccc(OC(C)C)c(C)c2)n(Cc2ccc(C)cc2)c1=O)C(=O)O [Compound I-0886]
- IC50 [3]: 76 nM

SMILES: CCn1c(=O)[nH]/c(=N\c2ccc(Oc3ccsn3)cc2)n(Cc2ccc(Cl)cc2)c1=O [Compound I-2286]
- IC50 [3]: 5 nM

SMILES: O=C(Cn1c(=O)[nH]/c(=N\c2ccc(Oc3ccnc(O)c3)cc2)n(Cc2ccc(Cl)cc2)c1=O)NCCO [Compound I-1979]
- IC50 [2]: 4 nM

SMILES: O=c1[nH]/c(=N\c2ccc(Oc3ncccc3F)cc2)n(Cc2ccc(Cl)cc2)c(=O)n1CC(CO)CO [Compound I-2706]
- IC50 [3]: 6 nM

SMILES: CC(C)Cc1ccc(/N=c2\[nH]c(=O)n([C@H](C)[C@H](C)C(=O)O)c(=O)n2Cc2ccc(Cl)cc2)cc1Cl [Compound I-1445]
- IC50 [2]: 4 nM

SMILES: CC(C)Oc1ccc(/N=c2\[nH]c(=O)n(CC(=O)N3CCN(C(=O)OC(C)(C)C)CC3)c(=O)n2Cc2ccc(Cl)cc2)cc1Cl [Compound I-0740]
- IC50 [2]: 221 nM

- IC50 [2]: 258 nM
SMILES: O=C(O)Cn1c(=O)[nH]/c(=N\c2ccc(OC3CCC3)cc2)n(Cc2ccc(Cl)cc2)c1=O [Compound I-1943]

SMILES: Cc1ccc(Cn2c(=O)n(CCC(=O)O)c(=O)[nH]/c2=N\c2ccc(Oc3cccc(C(N)=O)n3)cc2)cc1 [Compound I-2683]
- IC50 [3]: 12 nM

SMILES: COC(=O)[C@@H](C)[C@@H](C)n1c(=O)[nH]/c(=N\c2ccc(OC(C)C)c(F)c2)n(Cc2ccc(Cl)cc2)c1=O [Compound I-1315]
- IC50 [2]: 40 nM
